# According to publication PMC12697895, “Vinburnine Sensitizes Radiotherapy Efficacy in Nasopharyngeal Carcinoma by Triggering Pyroptosis and Immune Responses via Activation of EDAR‐NFκB Pathway” (Advanced Science, 2025):
# Target: T1, EDAR (endogenous, SUNE1 cells) (Homo sapiens, UniProt Q9UNE0)
# T1 construct: endogenous protein in SUNE1 cells, detected by Western blot
# T1 sequence (Q9UNE0 27-448): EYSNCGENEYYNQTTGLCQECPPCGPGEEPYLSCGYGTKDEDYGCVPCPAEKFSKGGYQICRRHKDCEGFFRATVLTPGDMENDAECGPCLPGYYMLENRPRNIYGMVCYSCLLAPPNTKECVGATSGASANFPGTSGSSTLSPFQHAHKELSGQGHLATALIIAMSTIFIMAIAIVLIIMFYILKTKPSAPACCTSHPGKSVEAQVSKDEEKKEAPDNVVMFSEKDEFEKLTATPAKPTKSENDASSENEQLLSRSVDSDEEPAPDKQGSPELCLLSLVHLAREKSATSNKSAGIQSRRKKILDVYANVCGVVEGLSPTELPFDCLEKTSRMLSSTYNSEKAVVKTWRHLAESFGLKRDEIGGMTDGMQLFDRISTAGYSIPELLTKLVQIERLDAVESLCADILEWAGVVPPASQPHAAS
# Assay: CETSA (Western blot)
# Format: cell-based
# Conditions: 10 µM vinburnine, intact SUNE1 cells, 12 h; six temperatures, 10 min
structure (smiles),measurement,value
CC[C@]12CCCN3CCc4c(n(c5ccccc45)C(=O)C1)[C@@H]32 [vinburnine],CETSA (Western blot),EDAR was more stable in vinburnine‐pretreated samples than in control samples at various temperatures
